Like-named read-outs stand apart in the source and are kept apart here.

Data set [1] relates to monovalent "split-varion" influenza vaccine (A/Panama/2007/99, H3N2). It is filed as physicochemical, influenza virus.
For data set [2], the target named is T1, ovalbumin (Gallus gallus, UniProt P01012).
T1 sequence (P01012 1-386): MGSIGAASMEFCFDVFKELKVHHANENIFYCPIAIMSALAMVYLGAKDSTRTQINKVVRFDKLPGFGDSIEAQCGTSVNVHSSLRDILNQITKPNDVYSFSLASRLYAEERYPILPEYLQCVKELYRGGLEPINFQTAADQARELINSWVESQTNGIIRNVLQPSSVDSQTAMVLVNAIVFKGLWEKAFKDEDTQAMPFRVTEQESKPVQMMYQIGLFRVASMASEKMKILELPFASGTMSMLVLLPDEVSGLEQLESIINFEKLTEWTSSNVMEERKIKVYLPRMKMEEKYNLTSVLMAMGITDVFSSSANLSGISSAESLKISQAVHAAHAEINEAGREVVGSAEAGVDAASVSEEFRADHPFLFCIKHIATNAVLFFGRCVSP
Kind of data set: Solubilization of 0.5 wt % ovalbumin solution by surfactants. It is filed as physicochemical. The text has this: Other surfactants and concentrations were test against a solution 0.5 wt % ovalbumin.

Where [3] appears, read: 0.5 wt % ovalbumin, Surfactant Concentration 0.0085 M.
Where [4] appears, read: 0.5 wt % ovalbumin, Surfactant Concentration 0.017 M.
Where [5] appears, read: 0.5 wt % ovalbumin, Surfactant Concentration 0.035 M.
The mark [6] stands for this setting: 0.5 wt % ovalbumin, Surfactant Concentration 0.052 M.
The mark [7] stands for this setting: 0.5 wt % ovalbumin, Surfactant Concentration 0.069 M.

In the case of `CCCCCCCCCCCC[N+](C)(C)CCCS(=O)(=O)[O-]` [Zwittergent 3-12], the “Turbidity @ 340 nanometers (200 μg/ml)” value in data set [1] is 0.087.

Take `CCCCCCCCCCCC[N+](C)(C)C.[Br-]` [Dodecyltrimethylammonium Br]: the “complete solubilization of ovalbumin solution” value (shortened to “complete solubilization”) in data set [2] (setting [3]), in data set [2] (setting [4]), in data set [2] (setting [5]), in data set [2] (setting [6]) and in data set [2] (setting [7]) was “−” in each case.

With `CCCCCCCCCCCC(=O)[O-].[Na+]` [Sodium laurate], the “complete solubilization” value is listed as “−” in data set [2] (setting [3]); “−” in data set [2] (setting [4]); “+” in data set [2] (setting [5]); “+” in data set [2] (setting [6]); “+” in data set [2] (setting [7]).

Take `CCCCCCCCCCCCCC[N+](C)(C)CCCS(=O)(=O)[O-]` [Zwittergent 3-14]: the “Turbidity @ 340 nanometers (200 μg/ml)” value in data set [1] is given as 0.070.

Consider `CCCCCCCCCCCCCCCCCCOS(=O)(=O)[O-].[Na+]` [Sodium octadecylsulfate], for which, in data set [2], the “complete solubilization” value is reported as “−”.

On to `CCCCCCCCCCCCCCOS(=O)(=O)[O-].[Na+]` [Sodium tetradecylsulfate], for which, in data set [2], the “complete solubilization” value is recorded as “−”.

Consider `CCCCCCCCOS(=O)(=O)[O-].[Na+]` [Sodium octylsulfate], for which the “complete solubilization” value in data set [2] was “−”.

Consider `CCCCCCCCCC[N+](C)(C)CCCS(=O)(=O)[O-]` [Zwittergent 3-10], for which the “Turbidity @ 340 nanometers (200 μg/ml)” value in data set [1] was 0.120.

The record behind these values is patent publication US20040096455A1, “Transdermal vaccine delivery device having coated microprotrusions” (priority 2002, published 2004).
